{"source": "the NIST ThermoML archive (doi:10.1021/je100315g)", "key": {"[1]": {"test": "xn = mol fraction of the nth substance listed", "details": "101 kPa, Liquid"}, "[2]": {"details": "101 kPa, Liquid"}}, "note": "± gives the expanded uncertainty stated by the source."}
{"compound": "CCn1cc[n+](C)c1.O=S(=O)([N-]S(=O)(=O)C(F)(F)F)C(F)(F)F", "note": "+ C[S+](C)[O-]", "values": [{"measurement": "mass density", "setting": "[1]; 293.15 K, x1 = 0.0593", "result": "1173.7 ± 0.4", "unit": "kg/m3"}, {"measurement": "mass density", "setting": "[1]; 293.15 K, x1 = 0.1959", "result": "1289.73 ± 0.6", "unit": "kg/m3"}, {"measurement": "mass density", "setting": "[1]; 293.15 K, x1 = 0.3595", "result": "1375.56 ± 0.73", "unit": "kg/m3"}, {"measurement": "mass density", "setting": "[1]; 293.15 K, x1 = 0.5086", "result": "1427.76 ± 0.81", "unit": "kg/m3"}, {"measurement": "mass density", "setting": "[1]; 293.15 K, x1 = 0.6325", "result": "1459.88 ± 0.85", "unit": "kg/m3"}, {"measurement": "mass density", "setting": "[1]; 293.15 K, x1 = 0.7778", "result": "1489.12 ± 0.89", "unit": "kg/m3"}, {"measurement": "mass density", "setting": "[1]; 293.15 K, x1 = 0.9378", "result": "1513.61 ± 0.93", "unit": "kg/m3"}, {"measurement": "mass density", "setting": "[1]; 293.15 K, x1 = 1", "result": "1522.08 ± 0.95", "unit": "kg/m3"}, {"measurement": "mass density", "setting": "[1]; 298.15 K, x1 = 0.0593", "result": "1168.67 ± 0.4", "unit": "kg/m3"}, {"measurement": "mass density", "setting": "[1]; 298.15 K, x1 = 0.1959", "result": "1284.68 ± 0.59", "unit": "kg/m3"}, {"measurement": "mass density", "setting": "[1]; 298.15 K, x1 = 0.3595", "result": "1370.44 ± 0.73", "unit": "kg/m3"}, {"measurement": "mass density", "setting": "[1]; 298.15 K, x1 = 0.5086", "result": "1422.61 ± 0.81", "unit": "kg/m3"}, {"measurement": "mass density", "setting": "[1]; 298.15 K, x1 = 0.6325", "result": "1454.75 ± 0.85", "unit": "kg/m3"}, {"measurement": "mass density", "setting": "[1]; 298.15 K, x1 = 0.7778", "result": "1484.04 ± 0.89", "unit": "kg/m3"}, {"measurement": "mass density", "setting": "[1]; 298.15 K, x1 = 0.9378", "result": "1508.51 ± 0.93", "unit": "kg/m3"}, {"measurement": "mass density", "setting": "[1]; 298.15 K, x1 = 1", "result": "1516.96 ± 0.94", "unit": "kg/m3"}, {"measurement": "mass density", "setting": "[1]; 303.13 K, x1 = 0.0593", "result": "1163.66 ± 0.39", "unit": "kg/m3"}, {"measurement": "mass density", "setting": "[1]; 303.13 K, x1 = 0.1959", "result": "1279.59 ± 0.58", "unit": "kg/m3"}, {"measurement": "mass density", "setting": "[1]; 303.13 K, x1 = 0.3595", "result": "1365.31 ± 0.72", "unit": "kg/m3"}, {"measurement": "mass density", "setting": "[1]; 303.13 K, x1 = 0.5086", "result": "1417.47 ± 0.8", "unit": "kg/m3"}, {"measurement": "mass density", "setting": "[1]; 303.13 K, x1 = 0.6325", "result": "1449.64 ± 0.84", "unit": "kg/m3"}, {"measurement": "mass density", "setting": "[1]; 303.13 K, x1 = 0.7778", "result": "1478.96 ± 0.88", "unit": "kg/m3"}, {"measurement": "mass density", "setting": "[1]; 303.13 K, x1 = 0.9378", "result": "1503.42 ± 0.92", "unit": "kg/m3"}, {"measurement": "mass density", "setting": "[1]; 303.13 K, x1 = 1", "result": "1511.85 ± 0.93", "unit": "kg/m3"}, {"measurement": "mass density", "setting": "[1]; 308.15 K, x1 = 0.0593", "result": "1158.66 ± 0.38", "unit": "kg/m3"}, {"measurement": "mass density", "setting": "[1]; 308.15 K, x1 = 0.1959", "result": "1274.53 ± 0.57", "unit": "kg/m3"}, {"measurement": "mass density", "setting": "[1]; 308.15 K, x1 = 0.3595", "result": "1360.26 ± 0.71", "unit": "kg/m3"}, {"measurement": "mass density", "setting": "[1]; 308.15 K, x1 = 0.5086", "result": "1412.42 ± 0.79", "unit": "kg/m3"}, {"measurement": "mass density", "setting": "[1]; 308.15 K, x1 = 0.6325", "result": "1444.59 ± 0.83", "unit": "kg/m3"}, {"measurement": "mass density", "setting": "[1]; 308.15 K, x1 = 0.7778", "result": "1473.89 ± 0.87", "unit": "kg/m3"}, {"measurement": "mass density", "setting": "[1]; 308.15 K, x1 = 0.9378", "result": "1498.38 ± 0.91", "unit": "kg/m3"}, {"measurement": "mass density", "setting": "[1]; 308.15 K, x1 = 1", "result": "1506.8 ± 0.92", "unit": "kg/m3"}, {"measurement": "mass density", "setting": "[1]; 313.15 K, x1 = 0.0593", "result": "1153.63 ± 0.4", "unit": "kg/m3"}, {"measurement": "mass density", "setting": "[1]; 313.15 K, x1 = 0.1959", "result": "1269.48 ± 0.6", "unit": "kg/m3"}, {"measurement": "mass density", "setting": "[1]; 313.15 K, x1 = 0.3595", "result": "1355.2 ± 0.71", "unit": "kg/m3"}, {"measurement": "mass density", "setting": "[1]; 313.15 K, x1 = 0.5086", "result": "1407.36 ± 0.78", "unit": "kg/m3"}, {"measurement": "mass density", "setting": "[1]; 313.15 K, x1 = 0.6325", "result": "1439.52 ± 0.82", "unit": "kg/m3"}, {"measurement": "mass density", "setting": "[1]; 313.15 K, x1 = 0.7778", "result": "1468.84 ± 0.87", "unit": "kg/m3"}, {"measurement": "mass density", "setting": "[1]; 313.15 K, x1 = 0.9378", "result": "1493.29 ± 0.9", "unit": "kg/m3"}, {"measurement": "mass density", "setting": "[1]; 313.15 K, x1 = 1", "result": "1501.74 ± 0.91", "unit": "kg/m3"}]}
{"compound": "CC#N", "note": "[acetonitrile]", "values": [{"measurement": "mass density", "setting": "[2]; 293.15 K", "result": "781.89 ± 0.59", "unit": "kg/m3"}, {"measurement": "mass density", "setting": "[2]; 298.15 K", "result": "776.52 ± 0.59", "unit": "kg/m3"}, {"measurement": "mass density", "setting": "[2]; 303.13 K", "result": "771.12 ± 0.6", "unit": "kg/m3"}, {"measurement": "mass density", "setting": "[2]; 308.15 K", "result": "765.68 ± 0.61", "unit": "kg/m3"}, {"measurement": "mass density", "setting": "[2]; 313.15 K", "result": "760.2 ± 0.62", "unit": "kg/m3"}]}
{"compound": "CC#N", "note": "[acetonitrile] + CCCC[n+]1ccn(C)c1.O=S(=O)([N-]S(=O)(=O)C(F)(F)F)C(F)(F)F", "values": [{"measurement": "mass density", "setting": "[1]; 293.15 K, x2 = 0", "result": "781.89 ± 0.59", "unit": "kg/m3"}, {"measurement": "mass density", "setting": "[1]; 298.15 K, x2 = 0", "result": "776.52 ± 0.59", "unit": "kg/m3"}, {"measurement": "mass density", "setting": "[1]; 303.13 K, x2 = 0", "result": "771.12 ± 0.6", "unit": "kg/m3"}, {"measurement": "mass density", "setting": "[1]; 308.15 K, x2 = 0", "result": "765.68 ± 0.61", "unit": "kg/m3"}, {"measurement": "mass density", "setting": "[1]; 313.15 K, x2 = 0", "result": "760.2 ± 0.62", "unit": "kg/m3"}]}
{"compound": "CC#N", "note": "[acetonitrile] + CCn1cc[n+](C)c1.O=S(=O)([N-]S(=O)(=O)C(F)(F)F)C(F)(F)F", "values": [{"measurement": "mass density", "setting": "[1]; 293.15 K, x2 = 0", "result": "781.89 ± 0.59", "unit": "kg/m3"}, {"measurement": "mass density", "setting": "[1]; 298.15 K, x2 = 0", "result": "776.52 ± 0.59", "unit": "kg/m3"}, {"measurement": "mass density", "setting": "[1]; 303.13 K, x2 = 0", "result": "771.12 ± 0.6", "unit": "kg/m3"}, {"measurement": "mass density", "setting": "[1]; 308.15 K, x2 = 0", "result": "765.68 ± 0.61", "unit": "kg/m3"}, {"measurement": "mass density", "setting": "[1]; 313.15 K, x2 = 0", "result": "760.2 ± 0.62", "unit": "kg/m3"}]}
{"compound": "C[S+](C)[O-]", "note": "[dimethyl sulfoxide]", "values": [{"measurement": "mass density", "setting": "[2]; 293.15 K", "result": "1100.31 ± 0.29", "unit": "kg/m3"}, {"measurement": "mass density", "setting": "[2]; 298.15 K", "result": "1095.3 ± 0.28", "unit": "kg/m3"}, {"measurement": "mass density", "setting": "[2]; 303.13 K", "result": "1090.31 ± 0.27", "unit": "kg/m3"}, {"measurement": "mass density", "setting": "[2]; 308.15 K", "result": "1085.27 ± 0.26", "unit": "kg/m3"}, {"measurement": "mass density", "setting": "[2]; 313.15 K", "result": "1080.27 ± 0.26", "unit": "kg/m3"}]}
{"compound": "C[S+](C)[O-]", "note": "[dimethyl sulfoxide] + CCCC[n+]1ccn(C)c1.O=S(=O)([N-]S(=O)(=O)C(F)(F)F)C(F)(F)F", "values": [{"measurement": "mass density", "setting": "[1]; 293.15 K, x2 = 0", "result": "1100.31 ± 0.29", "unit": "kg/m3"}, {"measurement": "mass density", "setting": "[1]; 298.15 K, x2 = 0", "result": "1095.3 ± 0.28", "unit": "kg/m3"}, {"measurement": "mass density", "setting": "[1]; 303.13 K, x2 = 0", "result": "1090.31 ± 0.27", "unit": "kg/m3"}, {"measurement": "mass density", "setting": "[1]; 308.15 K, x2 = 0", "result": "1085.27 ± 0.26", "unit": "kg/m3"}, {"measurement": "mass density", "setting": "[1]; 313.15 K, x2 = 0", "result": "1080.27 ± 0.26", "unit": "kg/m3"}]}
{"compound": "C[S+](C)[O-]", "note": "[dimethyl sulfoxide] + CCn1cc[n+](C)c1.O=S(=O)([N-]S(=O)(=O)C(F)(F)F)C(F)(F)F", "values": [{"measurement": "mass density", "setting": "[1]; 293.15 K, x2 = 0", "result": "1100.31 ± 0.29", "unit": "kg/m3"}, {"measurement": "mass density", "setting": "[1]; 298.15 K, x2 = 0", "result": "1095.3 ± 0.28", "unit": "kg/m3"}, {"measurement": "mass density", "setting": "[1]; 303.13 K, x2 = 0", "result": "1090.31 ± 0.27", "unit": "kg/m3"}, {"measurement": "mass density", "setting": "[1]; 308.15 K, x2 = 0", "result": "1085.27 ± 0.26", "unit": "kg/m3"}, {"measurement": "mass density", "setting": "[1]; 313.15 K, x2 = 0", "result": "1080.27 ± 0.26", "unit": "kg/m3"}]}
{"compound": "C1CCOC1", "note": "[tetrahydrofuran] + CCCC[n+]1ccn(C)c1.O=S(=O)([N-]S(=O)(=O)C(F)(F)F)C(F)(F)F", "values": [{"measurement": "mass density", "setting": "[1]; 293.15 K, x2 = 0", "result": "887.41 ± 0.46", "unit": "kg/m3"}, {"measurement": "mass density", "setting": "[1]; 298.15 K, x2 = 0", "result": "881.98 ± 0.46", "unit": "kg/m3"}, {"measurement": "mass density", "setting": "[1]; 303.13 K, x2 = 0", "result": "876.47 ± 0.47", "unit": "kg/m3"}, {"measurement": "mass density", "setting": "[1]; 308.15 K, x2 = 0", "result": "870.96 ± 0.48", "unit": "kg/m3"}]}
{"compound": "C1CCOC1", "note": "[tetrahydrofuran] + CCn1cc[n+](C)c1.O=S(=O)([N-]S(=O)(=O)C(F)(F)F)C(F)(F)F", "values": [{"measurement": "mass density", "setting": "[1]; 293.15 K, x2 = 0", "result": "887.41 ± 0.46", "unit": "kg/m3"}, {"measurement": "mass density", "setting": "[1]; 298.15 K, x2 = 0", "result": "881.98 ± 0.46", "unit": "kg/m3"}, {"measurement": "mass density", "setting": "[1]; 303.13 K, x2 = 0", "result": "876.47 ± 0.47", "unit": "kg/m3"}, {"measurement": "mass density", "setting": "[1]; 308.15 K, x2 = 0", "result": "870.96 ± 0.48", "unit": "kg/m3"}]}
